How the values were obtained:
[1] = parameters: method as in PMID 33979164; settings: pH 7.0, within 1 h; cited from earlier work
[2] = parameters: method as in PMID 33979164; settings: cited from earlier work
[3] = parameters: method as in PMID 33979164; settings: cited from earlier work; remark: listed apart in the source
[4] = parameters: method as in PMID 23515248; settings: cited from earlier work
[5] = parameters: method as in PMID 18321239; settings: cited from earlier work
[6] = Pharmacokinetic study after single SC injection in BALB/c mice; type: in vivo; settings: mouse, in vivo, single SC 30 mg/kg
Protocol: The pharmacokinetic profile of prodrug 25 was evaluated in mice, in a study undertaken at WuXi AppTec. Prodrug 25 was dissolved in a sterile vehicle of DMSO/Solutol HS15/water (10:10:80) to give a clear solution with a final concentration of 6 mg/mL. The same procedure was used to prepare a 6 mg/mL solution of RAL as a control. Six male BALB/c mice were used, each weighing 18–25 g and aged between 7–9 weeks (three per group). A single 30 mg/kg dose of prodrug 25 was administered to each animal in the treatment group (subcutaneously, in the thoracic region). Similarly, RAL (30 mg/kg) was administered to each animal in the control group. Blood samples were taken at the time points indicated below, up to the experiment endpoint (96 h).
For each animal, blood samples (30 μL each) were collected from the submandibular or saphenous vein over a period of 96 h, at the following time points: zero/pre-dose; then 0.25, 0.5, 1, 2, 3, 4, 5, 6, 24, 48, and 96 h. All samples were transferred into pre-chilled commercial K2EDTA tubes and placed on wet ice until processing for plasma, which was obtained by centrifugation at 4 °C and 3200× g for 10 min, within 30 min of sampling. The plasma samples were transferred to polypropylene tubes, snap-frozen on dry ice, and kept at −70 ± 10 °C until LC-MS/MS analysis.
An LC-MS/MS method was developed to measure the concentrations of prodrug 25 and RAL in the biological matrix. Two mobile phases were used: mobile phase A (0.025% NH4OH and 2 mM NH4OAc in 95:5 v/v water/MeCN) and mobile phase B (0.025% NH4OH and 2 mM NH4OAc in 5:95 v/v water/MeCN). A UPLC method was performed using an LC-MS/MS-BM Triple Quad 6500 plus system with an ACQUITY UPLC BEH C18 1.7 μm column (2.1 × 50 mm) at a flow rate of 0.65 mL/min. The assay time was 2.5 min, and the solvent B composition was as follows: 10–100% (0.2–1.4 min), 30% (1.41–1.7 min), 95% (2.0–2.4 min), and 10% (2.41–2.5 min). The retention times for the prodrug, RAL and the internal standards (tolbutamide and verapamil) were 0.76, 1.04, 0.66, and 0.97 min, respectively. Quantification was performed by monitoring the transition of m/z 835.3 [M+H]^+ to 457.2 for prodrug 25, representing the cyclisation of the linker with the amidic RAL such as in side-product 22; whereas for RAL, the transition m/z 445.2 [M+H]^+ to 361.2 was followed, representing the loss of the 2-methyl-1,3,4-oxadiazole moiety as the main fragmentation pathway. For the internal standards, the m/z transition from 455.2 [M+H]^+ to 164.9 was used for verapamil (corresponding to formation of the verapamil fragment [CH2CH2-(3,4-dimethoxy phenyl)]^+), and for tolbutamide, the transition of m/z of 271.1 [M+H]^+ to 155.1 was used, representing formation of the [CH3-Ph-SO2]^+ fragment. […] The method was linear over the measured standard concentrations for 25 and RAL. The mean plasma concentration was determined for 25 and RAL (as metabolite or control) at each sampling time point. Pharmacokinetic parameters were then calculated by non-compartmental analysis of plasma concentration/time profiles using the Phoenix WinNonlin 6.3 software. The computed parameters were as follows: peak plasma concentration (Cmax); the time over which the initial concentration is reduced to half (t½); area under the plasma concentration versus time curve from time zero to 96 h (AUC 0–96 h); and mean residence time from time zero to 96 h (MRT 0–96 h).
Since in vitro models are not fully predictive of in vivo pharmacokinetics, especially for prodrugs, assessment of these characteristics still relies on in vivo studies. Therefore, the pharmacokinetic profile of prodrug 25 was evaluated in mice. Compound 25 and the control (RAL) were dissolved in DMSO/Solutol HS15/water (10:10:80). For a single SC injection of 25 (30 mg/kg) in BALB/c mice (n = 3), the plasma concentrations of prodrug and released RAL were measured at the following time points: zero/pre-dose; then 0.25, 0.5, 1, 2, 3, 4, 5, 6, 24, 48, and 96 h. […]

[7] = parameters: method as in PMID 36678931; settings: pH 6.5, over 6 d; cited from earlier work
[8] = plasma level of the dosed compound, male BALB/c mice, n = 3

In the case of `CNCCOC(=O)OCOc1c(-c2ccc(Oc3ccc(OC(F)(F)F)cc3)cc2F)c(C)nc2cc(OC)c(Cl)cc12` [Compound 1], the “parent compound released within 1 h” value [1] is given as over 90%, the “aqueous solubility compared with the parent compound” value [2] is given as “enhanced” and the “oral bioavailability compared with the parent compound” value [3] is given as “enhanced”.

For `Cc1nnc(C(=O)NC(C)(C)c2nc(C(=O)NCc3ccc(F)cc3)c(O)c(=O)n2C)o1` [RAL, raltegravir], the pKa [4] is listed as 6.7, the “half-life (t½)” value [5] is listed as 420 to 720 min and the concentration at 6 h ([6]; male, RAL control, BALB/c mice, 6 h, read-out: plasma concentration remaining after 6 h) is listed as 10.7 ng/mL. The Cmax [6, 8] was 6230 ng/mL, the Tmax [6, 8] was 19.8 min and the AUC(0-t) ([6]; plasma level of the dosed compound, male BALB/c mice, n = 3, read-out: AUC 0–96 h) was 9890 ng·h/mL. For the same compound, the half-life ([6]; plasma level of the dosed compound, male BALB/c mice, n = 3, read-out: t½ (converted)) was 45.6 min.

In the case of `C#CCCCNCCCCOC(=O)OCOc1ccc(N)cc1C(=O)O` [Compound 4], the “release of mesalamine over 6 d” value [7] is listed as 92%.

From publication PMC10224444, “Novel Perspectives on the Design and Development of a Long-Acting Subcutaneous Raltegravir Injection for Treatment of HIV—In Vitro and In Vivo Evaluation” (Pharmaceutics, 2023)
